Laboratory results published in ChEMBL document CHEMBL5678800 (Mol Cancer Ther, 2009).
Calls of active or inactive are those of the source. The calls are words filed in the database; no cut-off is given here.

Columns and labels:
[1] = Toxicity in nude mouse xenografted with human GEO cells assessed as body weight loss at 25 mg/kg, po administered for 3 days in presence of cetuximab at 0.25 mg/kg relative to control; format: organism-based; conditions: in vivo, 72 h, time 3 day
[2] = Toxicity in nude mouse xenografted with human GEO cells assessed as body weight loss at 12.5 mg/kg, po administered for 17 days; format: organism-based; conditions: in vivo, 408 h, time 17 day
[3] = Toxicity in nude mouse xenografted with human GEO cells assessed as mortality at 6.25 mg/kg, po administered for 17 days relative to control; format: organism-based; conditions: in vivo, time 17 day
Rh41 [4] = test: Induction of cell cycle arrest in human Rh41 cells assessed as accumulation of cells at G2/M phase at 10x IC50 incubated for 24 hrs by propidium iodide staining based flow cytometry analysis relative to control; format: functional
[5] = Toxicity in nude mouse xenografted with human GEO cells assessed as mortality at 25 mg/kg, po administered for 17 days relative to control; format: organism-based; conditions: in vivo, time 17 day
[6] = Toxicity in nude mouse xenografted with human GEO cells assessed as mortality at 12.5 mg/kg, po administered for 17 days relative to control; format: organism-based; conditions: in vivo, time 17 day
Rh41 [7] = test: Induction of cell cycle arrest in human Rh41 cells assessed as accumulation of cells at G2/M phase by measuring >4N DNA content at 10x IC50 incubated for 48 hrs by propidium iodide staining based flow cytometry analysis; format: functional
GEO [8] = test: Antitumor activity against human GEO cells xenografted in nude mouse assessed as tumor growth delay time at 12.5 mg/kg, po administered for 3 days in presence of cetuximab at 0.125 mg/kg relative to control; format: functional; conditions: time 3 day
[9] = Antitumor activity against mouse IGF-1R-Sal cells xenografted in nude mouse assessed as tumor growth inhibition at 6.25 to 150 mg/kg, po administered for 4 days relative to control; format: functional; conditions: dose 6.25-150 mg/kg, time 4 day
[10] = Plasma concentration in nude mouse xenografted with mouse IGF-1R-Sal cells po administered for 2 hrs by LC-MS/MS analysis
[11] = target: T1, Protein kinase C zeta type (Homo sapiens, UniProt Q05513); test: Inhibition of recombinant PKCzeta (unknown origin) incubated for 60 mins in presence of ATP by electrophoretic caliper fluorescence analysis
T1 sequence (Q05513 whole entry): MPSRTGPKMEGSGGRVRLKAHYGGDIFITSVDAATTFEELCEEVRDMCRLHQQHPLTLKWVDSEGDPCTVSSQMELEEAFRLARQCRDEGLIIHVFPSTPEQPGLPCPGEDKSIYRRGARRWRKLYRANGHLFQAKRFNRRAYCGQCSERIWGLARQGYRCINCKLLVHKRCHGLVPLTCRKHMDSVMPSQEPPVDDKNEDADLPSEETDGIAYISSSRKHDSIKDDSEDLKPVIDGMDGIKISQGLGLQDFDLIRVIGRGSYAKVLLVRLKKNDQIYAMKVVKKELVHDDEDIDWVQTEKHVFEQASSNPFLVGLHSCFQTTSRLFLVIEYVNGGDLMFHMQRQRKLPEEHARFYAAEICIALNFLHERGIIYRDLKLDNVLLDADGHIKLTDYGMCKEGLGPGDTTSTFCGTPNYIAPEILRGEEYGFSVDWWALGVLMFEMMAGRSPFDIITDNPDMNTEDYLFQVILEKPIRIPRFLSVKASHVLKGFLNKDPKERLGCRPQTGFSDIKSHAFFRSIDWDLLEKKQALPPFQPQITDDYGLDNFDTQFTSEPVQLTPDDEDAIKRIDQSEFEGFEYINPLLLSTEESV

RD1 = test: Antitumor activity against human RD1 cells xenografted in nude mouse assessed as tumor growth inhibition at 50 mg/kg, po administered for 14 days relative to control; conditions: 336 h, read-out: TGI
[12] = Plasma concentration in nude mouse xenografted with mouse IGF-1R-Sal cells at 12.5 mg/kg, po administered for 2 hrs by LC-MS/MS analysis; format: ADME, organism-based
Mus musculus [13] = test: Anti-diabetic activity against nude mouse xenografted with mouse IGF-1R-Sal cells assessed as increased serum glucose level at 3.125 mg/kg, po administered for 2 hrs by oral glucose tolerance test (Rvb= 97.40 +/- 5.0 mg/dl); format: functional
Rh41 [14] = test: Induction of cell cycle arrest in human Rh41 cells assessed as accumulation of cells at sub-G1 phase at 10x IC50 incubated for 24 hrs by propidium iodide staining based flow cytometry analysis (reference value: […])
Mus musculus [15] = test: Anti-diabetic activity against nude mouse xenografted with mouse IGF-1R-Sal cells assessed as increased serum glucose level at 12.5 mg/kg, po administered for 2 hrs by oral glucose tolerance test (Rvb= 97.40 +/- 5.0 mg/dl); format: functional
[16] = Toxicity in nude mouse xenografted with human GEO cells assessed as body weight loss at 25 mg/kg, po administered for 3 days in presence of cetuximab at 0.125 mg/kg relative to control; format: organism-based; conditions: in vivo, 72 h, time 3 day
COLO 205 = test: Antitumor activity against human COLO 205 cells xenografted in nude mouse assessed as tumor growth inhibition at 50 mg/kg, po administered for 23 days relative to control; format: functional; conditions: COLO 205, 552 h, time 23 day, read-out: TGI
Rh41 [17] = test: Antitumor activity against human Rh41 cells xenografted in nude mouse assessed as tumor growth inhibition at 3.1 to 25 mg/kg, po administered for 14 days relative to control; format: functional; conditions: dose 3.1-25 mg/kg, time 14 day
GEO [18] = test: Antitumor activity against human GEO cells xenografted in nude mouse assessed as tumor growth inhibition at 12.5 mg/kg, po administered for 3 days in presence of cetuximab at 0.25 mg/kg relative to control; format: functional; conditions: 72 h, time 3 day, read-out: TGI
JJN-3 = test: Antitumor activity against human JJN-3 cells xenografted in nude mouse assessed as tumor growth inhibition at 25 mg/kg, po administered for 14 days relative to control; format: functional; conditions: JJN-3, 336 h, time 14 day, read-out: TGI
[19] = Toxicity in nude mouse xenografted with human GEO cells assessed as body weight loss at 6.25 mg/kg, po administered for 3 days in presence of cetuximab at 0.25 mg/kg relative to control; format: organism-based; conditions: in vivo, 72 h, time 3 day
[20] = target: High affinity nerve growth factor receptor (Rattus norvegicus, UniProt P35739); test: Inhibition of TrkA autophosphorylation in rat CD8-TrkA cells by Western blotting analysis; format: cell-based
Chain of High affinity nerve growth factor receptor (P35739 whole entry): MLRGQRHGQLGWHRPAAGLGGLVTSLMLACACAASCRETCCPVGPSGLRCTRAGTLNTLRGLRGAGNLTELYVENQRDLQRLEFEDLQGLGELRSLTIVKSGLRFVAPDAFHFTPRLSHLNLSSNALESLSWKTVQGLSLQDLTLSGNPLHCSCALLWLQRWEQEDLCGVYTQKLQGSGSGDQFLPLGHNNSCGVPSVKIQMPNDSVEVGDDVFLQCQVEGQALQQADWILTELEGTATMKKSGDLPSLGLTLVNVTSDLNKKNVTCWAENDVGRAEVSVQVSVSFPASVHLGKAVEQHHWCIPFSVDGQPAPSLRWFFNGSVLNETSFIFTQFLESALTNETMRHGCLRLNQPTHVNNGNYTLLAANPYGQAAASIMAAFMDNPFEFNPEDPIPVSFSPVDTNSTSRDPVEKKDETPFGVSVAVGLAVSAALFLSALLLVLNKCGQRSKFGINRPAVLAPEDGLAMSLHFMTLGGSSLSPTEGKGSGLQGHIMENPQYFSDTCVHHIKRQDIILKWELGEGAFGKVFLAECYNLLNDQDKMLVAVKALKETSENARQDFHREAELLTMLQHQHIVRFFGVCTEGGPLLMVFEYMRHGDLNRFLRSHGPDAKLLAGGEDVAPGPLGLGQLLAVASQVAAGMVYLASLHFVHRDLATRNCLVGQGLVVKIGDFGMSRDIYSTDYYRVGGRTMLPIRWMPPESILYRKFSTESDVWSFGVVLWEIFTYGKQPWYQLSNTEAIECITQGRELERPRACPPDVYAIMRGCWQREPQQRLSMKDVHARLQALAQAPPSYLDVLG

Mus musculus [21] = test: Anti-diabetic activity against nude mouse xenografted with mouse IGF-1R-Sal cells assessed as insulin level at 3.125 mg/kg, po administered for 2 hrs by ELISA analysis (Rvb= 0.39 +/- […]); format: functional
GEO [22] = test: Antitumor activity against human GEO cells xenografted in nude mouse assessed as tumor growth inhibition at 12.5 mg/kg, po administered for 3 days in presence of cetuximab at 0.125 mg/kg relative to control; format: functional; conditions: 72 h, time 3 day, read-out: TGI
IGF-1R-Sal = test: In vivo inhibition of IGF-1R phosphorylation in mouse IGF-1R-Sal cells xenografted in nude mouse at 12.5 mg/kg, po administered for 30 mins by Western blotting analysis; format: functional, organism-based

**Q.** Which Activity [1] does the source give for `C[C@@]1(C(=O)Nc2ccc(F)nc2)CCCN1c1nc(Nc2cc(C3CC3)n[nH]2)c2cccn2n1` [BMS-754807] here?
**A.** 1.5 g

**Q.** What about the Activity [2] of the same compound?
**A.** -0.8 g

**Q.** And the mortality at 408 h [3]?
**A.** 0%

**Q.** And the Activity (Rh41 [4])?
**A.** 2.8%

**Q.** What about the mortality at 408 h [5] of the same compound?
**A.** 0%

**Q.** What about the mortality at 408 h [6] of the same compound?
**A.** 0%

**Q.** What about the Activity (Rh41 [7]) of the same compound?
**A.** Active

**Q.** What about the Time (GEO [8]) of the same compound?
**A.** 30 days

**Q.** What about the TGI [9] of the same compound?
**A.** 67%

**Q.** And the concentration at 2 h [10]?
**A.** 94 nM

**Q.** What about the IC50 [11] of the same compound?
**A.** > 50000 nM

**Q.** What about the inhibition in vivo at 50 mg/kg (RD1) of the same compound?
**A.** 58%

**Q.** And the concentration at 2 h [12]?
**A.** 29 nM

**Q.** What about the Activity (Mus musculus [13]) of the same compound?
**A.** 91 mg/dL

**Q.** And the Activity (Rh41 [14])?
**A.** 23.1%

**Q.** And the Activity (Mus musculus [15])?
**A.** 89 mg/dL

**Q.** What about the Activity [16] of the same compound?
**A.** 0.6 g

**Q.** And the inhibition in vivo at 50 mg/kg (COLO 205)?
**A.** 53%

**Q.** What about the TGI (Rh41 [17]) of the same compound?
**A.** 65%

**Q.** And the inhibition in vivo at 12.5 mg/kg (GEO [18])?
**A.** 88%

**Q.** And the inhibition in vivo at 25 mg/kg (JJN-3)?
**A.** 53%

**Q.** And the Activity [19]?
**A.** 1.4 g

**Q.** What about the IC50 [20] of the same compound?
**A.** 1020 nM

**Q.** What about the Activity (Mus musculus [21]) of the same compound?
**A.** 2 ng/mL

**Q.** What about the inhibition in vivo at 12.5 mg/kg (GEO [22]) of the same compound?
**A.** 86%

**Q.** And the inhibition (IGF-1R-Sal)?
**A.** Active
